Paper PMC11821258 (Molecules, 2025)
Where two headings read alike, the source gives them in different places.

Key:
Format in all cases: cell-based
[1] = system: human normal epithelial cells from the mammary gland (MCF-10A); test: Cytotoxicity on non-tumorigenic cells, SRB assay, 72 h; settings: Homo sapiens
Description: (§1) The tested compounds were dissolved in DMSO (dimethyl sulfoxide) to a concentration of 10 mg/mL and then were diluted in the culture medium to reach the final concentrations. The cells were plated in 384-well plates at a density of 1 × 10^3 or 2 × 10^3 (MCF-10A) cells per well (Greiner Bio One, Kremsmünster, Austria) and in 96-well plates (MV4-11 cell; Sarstedt, Nümbrecht, Germany) at a density of 5 × 10^3 cells per well. After 24 h of incubation, the tested compounds were added at concentrations in the range of 100–0.03 µg/mL and, after the next 72 h of exposure to tested agents, the cytotoxic effect of all agents was examined using the MTT (MV4-11) or SRB assay, described previously. The values of IC50 (inhibitory concentration 50%) were calculated separately for each experiment (repeated 3–5 times) using the Prolab-3 system which is based on Cheburator 0.4 software. Doxorubicin was applied as a reference drug. The IC50 values in µg/mL were calculated to µM.
(§2) The cytotoxicity assay was performed after the cultured cells were exposed to the tested agents for 72 h using the authomatic Washer dyspenser EL406, BioTek. At the first step, the washer dispenser collected 40 µL of cultured medium from each wells, and then the cells were fixed by gently layering 20 µL per well of cold 25% trichloroacetic acid to each well. The incubation time was 40 min and then the plates were washed with tap water. The cells were stained with 20 µL per well of 0.1% sulforhodamine B (SRB, Merck, Darmstadt, Germany) for 30 min. Unbound sulforhodamine B was removed by washing it with 1% acetic acid. The protein-bound dye was extracted in 30 min using 70 µL per well of 10 mM unbuffered Tris base (Merck, Darmstadt, Germany). The absorbance (at 540 nm) was measured on a Synergy H4 photometer (BioTek Instruments, Winooski, VT, USA). The absorbance of the wells without the cells was the background.

[2] = system: human colon cancer HCT116 cells; test: Antiproliferative activity, SRB assay, 72 h; settings: for IC50: Homo sapiens; for SI: IC50 MCF-10A / IC50 HCT116
Description: as §1, §2

[3] = system: human breast cancer MCF-7; test: Antiproliferative activity, SRB assay, 72 h; settings: for IC50: Homo sapiens; for SI: IC50 MCF-10A / IC50 MCF-7
Description: as §1, §2

[4] = system: human prostate adenocarcinoma PC-3; test: Antiproliferative activity, SRB assay, 72 h; settings: for IC50: Homo sapiens; for SI: IC50 MCF-10A / IC50 PC-3
Description: as §1, §2

[5] = system: human pancreas cancer MiaPaca-2 cells; test: Antiproliferative activity, SRB assay, 72 h; settings: for IC50: Homo sapiens; for SI: IC50 MCF-10A / IC50 MiaPaca-1 (so in the source)
Description: as §1, §2

[6] = system: human lung carcinoma A549; test: Antiproliferative activity, SRB assay, 72 h; settings: for IC50: Homo sapiens, A549, 72 h; for SI: IC50 MCF-10A / IC50 A549
Description: as §1, §2

[7] = system: human melanoma Hs294T cells; test: Antiproliferative activity, SRB assay, 72 h; settings: for IC50: Homo sapiens, Hs 294T, 72 h; for SI: IC50 MCF-10A / IC50 Hs249T (so in the source)
Description: as §1, §2

[8] = system: human biphenotypic B myelomonocytic leukemia MV4-11; test: Antiproliferative activity, MTT assay, 72 h; settings: for IC50: Homo sapiens, MV4-11, 72 h; for SI: IC50 MCF-10A / IC50 MV4-11
Description: as §1
This assay was used against MV4-11 leukemia cells and was performed after 72 h of exposure of the tested agents to the cells. For each well, 20 µL of the MTT [3-(4,5-dimethylthiazol-2-yl)-2,5-diphenyl tetrazolium bromide] solution (5 mg/mL, Merck, Darmstadt, Germany) was added. After the incubation time (4 h at 37 °C), 80 µL of the lysing buffer was added to each well (mixture of 225 mL of DMF (dimethylformamide) Avantor, Poland; 67.5 g of SDS, Merck, Darmstadt, Germany; and 275 mL of distilled water). After the next 24 h, the absorbance of the samples was measured at a 570 nm wavelength on a Synergy H4 photometer (BioTek Instruments, Winooski, VT, USA). The absorbance of wells without the cells was the background.

[9] = MCF-10A normal cells, SRB, read-out: IC50
[10] = HCT-116, HCT116, 72 h, SRB, read-out: IC50
[11] = MCF7, MCF-7, 72 h, SRB, read-out: IC50
[12] = PC-3, 72 h, SRB, read-out: IC50
[13] = MIA PaCa-2, MiaPaca-1 (so in the source), 72 h, SRB, read-out: IC50
[14] = Hs249T (so in the source), SRB, read-out: IC50

Row | SMILES | IC50 [1, 9] [µM] | IC50 [2, 10] [µM] | SI [2] | IC50 [3, 11] [µM] | SI [3] | IC50 [4, 12] [µM] | SI [4] | IC50 [5, 13] [µM] | SI [5] | IC50 ([6]; SRB, read-out: IC50) [µM] | SI [6] | IC50 [7, 14] [µM] | SI [7] | IC50 ([8]; MTT, read-out: IC50) [µM] | SI [8] | also measured
1 | C=C(C)[C@@H]1CC[C@]2(COC(=O)C#CC)CC[C@]3(C)C(CCC4[C@@]5(C)CC[C@H](OC(=O)CC(C)(C)C(=O)O)C(C)(C)C5CC[C@]43C)C12 (some centres unmarked) [Compound 5c] | 32 ± 4.87 | 9.26 ± 0.47 | 3.46 | 25 ± 4.87 | 1.28 | 22.9 ± 4.71 | 1.40 | 32 ± 6.12 | 1.00 | 6.59 ± 1.88 | 4.86 | 23.2 ± 3.77 | 1.38 | 11 ± 1.1 | 2.91 | –
2 | C=C(C)[C@@H]1CC[C@]2(CO)CC[C@]3(C)C(CCC4[C@@]5(C)CC[C@H](OC(=O)CC(C)(C)C(=O)O)C(C)(C)C5CC[C@]43C)C12 (some centres unmarked) [Compound 5] | 26.8 ± 2.1 | 14.7 ± 4.55 | 1.82 | 29.2 ± 3.85 | 0.92 | 27 ± 3.85 | 1.01 | 30.7 ± 2.63 | 0.87 | 9.11 ± 0.87 | 2.94 | 30.8 ± 1.4 | 0.87 | 7.81 ± 2.8 | 3.43 | –
3 | C=C(C)[C@@H]1CC[C@]2(COC(C)=O)CC[C@]3(C)C(CCC4[C@@]5(C)CC[C@H](OC(=O)CC(C)(C)C(=O)O)C(C)(C)C5CC[C@]43C)C12 (some centres unmarked) [Compound 2, 28-acetyl-3-(3′,3′-dimethylsuccinyl)betulin] | – | – | 3.10 | – | 2.04 | – | 1.69 | – | 1.20 | – | 7.43 | – | 1.23 | – | 7.70 | IC50 ([1]; MCF-10A): 33.9 ± 4.24 µM; IC50 ([2]; HCT-116, 72 h): 10.9 ± 2.94 µM; IC50 ([3]; MCF7, 72 h): 16.6 ± 7.67 µM; IC50 ([4]; 72 h): 20.1 ± 2.12 µM; IC50 ([5]; MIA PaCa-2, 72 h): 28.2 ± 4.4 µM; IC50 [6]: 4.57 ± 1.79 µM; IC50 [7]: 27.6 ± 0.65 µM; IC50 [8]: 4.4 ± 1.63 µM
4 | C=C(C)[C@@H]1CC[C@]2(COC(=O)CC)CC[C@]3(C)C(CCC4[C@@]5(C)CC[C@H](OC(=O)CC(C)(C)C(=O)O)C(C)(C)C5CC[C@]43C)C12 (some centres unmarked) [Compound 5d] | 34.1 ± 4.94 | 12.3 ± 4.15 | 2.78 | 21.1 ± 9.89 | 1.62 | 16.6 ± 6.54 | 2.06 | 29.2 ± 1.59 | 1.17 | 4.62 ± 1.59 | 7.38 | 59.7 ± 38.6 | 0.57 | 2.5 ± 0.48 | 13.63 | –
5 | C#CCCC(=O)OC[C@]12CC[C@@H](C(=C)C)C1C1CCC3[C@@]4(C)CC[C@H](OC(=O)CCC(=O)O)C(C)(C)C4CC[C@@]3(C)[C@]1(C)CC2 (some centres unmarked) [Compound 6b] | 30.7 ± 3.69 | 9.95 ± 0.64 | 3.08 | 11.4 ± 4.17 | 2.69 | 13.2 ± 2.57 | 2.33 | 27.4 ± 2.57 | 1.12 | 3.21 ± 0.64 | 9.55 | 17.5 ± 6.26 | 1.75 | 3.53 ± 0.64 | 8.68 | –
6 | C=C(C)[C@@H]1CC[C@]2(COC(C)=O)CC[C@]3(C)C(CCC4[C@@]5(C)CC[C@H](OC(=O)CC(C)(C)CC(=O)O)C(C)(C)C5CC[C@]43C)C12 (some centres unmarked) [Compound 1] | 33.2 ± 1.91 | 6.38 ± 2.87 | 5.20 | 7.02 ± 2.39 | 4.73 | 14 ± 7.02 | 2.36 | 23.6 ± 3.83 | 1.41 | 4.94 ± 0.48 | 6.71 | 11.6 ± 1.12 | 2.85 | 2.9 ± 0.26 | 11.44 | –
7 | C=C(C)[C@@H]1CC[C@]2(COC(=O)C#CC3CC3)CC[C@]3(C)C(CCC4[C@@]5(C)CC[C@H](OC(=O)CC(C)(C)CC(=O)O)C(C)(C)C5CC[C@]43C)C12 (some centres unmarked) [Compound 4e] | 68 ± 34.9 | 23.2 ± 5.91 | 2.93 | 25.7 ± 4.43 | 2.60 | 15.2 ± 5.91 | 4.47 | 67.1 ± 14.5 | 1.01 | 59.8 ± 22.2 | 1.14 | 19.8 ± 5.61 | 3.40 | 3.16 ± 0.88 | 21.50 | –
8 | C=C(C)[C@@H]1CC[C@]2(COC(=O)C#CC)CC[C@]3(C)C(CCC4[C@@]5(C)CC[C@H](OC(=O)CC(C)(C)CC(=O)O)C(C)(C)C5CC[C@]43C)C12 (some centres unmarked) [Compound 4c] | 32.6 ± 2.15 | 8.45 ± 2.15 | 3.85 | 16.6 ± 2.15 | 1.96 | 10.1 ± 2.46 | 3.21 | 22.7 ± 5.53 | 1.43 | 7.37 ± 2.3 | 4.42 | 9.68 ± 1.54 | 3.37 | 3.23 ± 1.38 | 10.10 | –
9 | C#CC(=O)OC[C@]12CC[C@@H](C(=C)C)C1C1CCC3[C@@]4(C)CC[C@H](OC(=O)CC(C)(C)C(=O)O)C(C)(C)C4CC[C@@]3(C)[C@]1(C)CC2 (some centres unmarked) [Compound 5a] | 12.7 ± 0.5 | 3.64 ± 0.6 | 3.49 | 19.4 ± 3.1 | 0.65 | 0.85 ± 0.17 | 14.94 | – | – | 10.7 ± 3 | 1.18 | – | – | 0.6 ± 0.175 | 21.17 | –
